The text below walks through data of patent US9085576B2 (AMGEN INC., priority 2013, dated 2015).

Structures can show the parent of a compound that is named as a salt. Where two headings read alike, the source gives them in different places.

One assay deals with BACE (Homo sapiens (Human), UniProt P56817). Kind of assay: In vitro BACE cell-based assay (Aβ40 in conditioned medium, sandwich ELISA).
For assay [1], the target named is Beta Secretase enzyme (BACE) (Homo sapiens (Human), UniProt P56817). Kind of assay: In vitro enzymatic BACE FRET assay. It counts as biochemical.
Sequence of Beta Secretase enzyme (BACE) (P56817 46-501): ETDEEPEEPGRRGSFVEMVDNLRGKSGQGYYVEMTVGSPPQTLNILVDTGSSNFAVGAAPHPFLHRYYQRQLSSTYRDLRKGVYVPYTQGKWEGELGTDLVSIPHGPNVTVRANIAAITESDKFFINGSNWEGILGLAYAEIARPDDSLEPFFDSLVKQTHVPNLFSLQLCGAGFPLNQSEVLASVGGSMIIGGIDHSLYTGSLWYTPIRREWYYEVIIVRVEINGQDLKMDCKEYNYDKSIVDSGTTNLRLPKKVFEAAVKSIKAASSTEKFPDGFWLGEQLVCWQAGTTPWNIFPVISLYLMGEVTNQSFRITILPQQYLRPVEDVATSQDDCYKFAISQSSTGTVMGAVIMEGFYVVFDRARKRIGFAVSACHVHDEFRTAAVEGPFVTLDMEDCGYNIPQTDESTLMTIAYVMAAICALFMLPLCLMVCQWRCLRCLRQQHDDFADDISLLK
The target in a further assay is Cathepsin D (Cat D) (Homo sapiens (Human), UniProt P07339). The assay is described as follows: In vitro enzymatic Cathepsin D (Cat D) FRET assay. Format: biochemical.
Sequence of Cathepsin D (Cat D) (P07339 65-412, species assumed): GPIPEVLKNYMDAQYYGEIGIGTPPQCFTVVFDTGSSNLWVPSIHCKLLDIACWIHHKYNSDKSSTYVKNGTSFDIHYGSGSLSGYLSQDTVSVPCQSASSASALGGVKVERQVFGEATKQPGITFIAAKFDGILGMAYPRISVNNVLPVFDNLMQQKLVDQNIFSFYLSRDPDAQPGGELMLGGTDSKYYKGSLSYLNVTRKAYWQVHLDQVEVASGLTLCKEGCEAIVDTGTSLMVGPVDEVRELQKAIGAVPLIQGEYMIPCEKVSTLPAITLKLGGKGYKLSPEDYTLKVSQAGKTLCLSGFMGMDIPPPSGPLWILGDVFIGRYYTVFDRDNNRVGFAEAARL
Setting [2] is: read-out: BACE1 Enzyme assay IC50.

Sequence of BACE (P56817 46-501, species assumed): as the sequence (P56817 46-501) above

Take `C[C@H](F)c1nc(C(=O)Nc2ccc(F)c([C@@]3(C(F)F)N=C(N)O[C@@H]4C[C@@H]43)c2)co1` (mixture of isomers) [Example 175, N-(3-((1R,5S,6R)-3-amino-5-(difluoromethyl)-2-oxa-4-azabicyclo[4.1.0]hept-3-en-5-yl)-4-fluorophenyl)-2-(1-fluoroethyl)oxazole-4-carboxamide 2,2,2-trifluoroacetate]: the half-maximal inhibitory concentration (IC50) worked out at 2.48 µM on BACE, 2.88 µM in assay [1] (setting [2]) and 1340 µM at Cathepsin D (Cat D) (read-out: CatD IC50).
On to `NC1=N[C@@](c2cc(NC(=O)[C@H]3CCCO3)ccc2F)(C(F)F)[C@H]2C[C@H]2O1` (mixture of isomers) [Example 244, (S,R)-N-(3-((1R,5S,6R)-3-amino-5-(difluoromethyl)-2-oxa-4-azabicyclo[4.1.0]hept-3-en-5-yl)-4-fluorophenyl) tetrahydrofuran-2-carboxamide], for which the values for the 50% inhibitory concentration (IC50) (against BACE; in assay [1] (setting [2]); on Cathepsin D (Cat D) (read-out: CatD IC50)) were 1.98 µM, 5.37 µM and 319 µM, respectively.
For `C[C@H](C(=O)Nc1ccc(F)c([C@@]2(C(F)F)N=C(N)O[C@@H]3C[C@@H]32)c1)c1ccc(Cl)cc1` (mixture of isomers) [Example 252, N-(3-((1R,5S,6R)-3-amino-5-(difluoromethyl)-2-oxa-4-azabicyclo[4.1.0]hept-3-en-5-yl)-4-fluorophenyl)-2-(4-chlorophenyl) propanamide], in that order: more than 15.6 µM, more than 40 µM and 270 µM.
The matching figures for `NC1=N[C@@](c2cc(NC(=O)[C@@H]3CCOC3)ccc2F)(C(F)F)[C@H]2C[C@H]2O1` (mixture of isomers) [Example 253, (R,S)-N-(3-((1R,5S,6R)-3-amino-5-(difluoromethyl)-2-oxa-4-azabicyclo[4.1.0]hept-3-en-5-yl)-4-fluorophenyl) tetrahydrofuran-3-carboxamide]: more than 15.6 µM, 34.3 µM and 188 µM.
As to `CO[C@H](C)C(=O)Nc1ccc(F)c([C@@]2(C(F)F)N=C(N)O[C@@H]3C[C@@H]32)c1` (mixture of isomers) [Example 257, (R,S)-N-(3-((1R,5S,6R)-3-amino-5-(difluoromethyl)-2-oxa-4-azabicyclo[4.1.0]hept-3-en-5-yl)-4-fluorophenyl)-2-methoxypropanamide], the IC50 was 2.54 µM at BACE, 1.84 µM in assay [1] (setting [2]) and 377 µM on Cathepsin D (Cat D) (read-out: CatD IC50).
`N#Cc1cnc2c(c1)CC[C@@H]2Nc1ccc(F)c([C@@]2(C(F)F)N=C(N)O[C@@H]3C[C@@H]32)c1` (single isomer, unassigned) [Example 402]: the figures for the IC50 (against BACE; in assay [1] (setting [2])) were 0.318 µM and 0.976 µM, respectively.
At BACE, `NC1=N[C@](CF)(c2cc(NC(=O)c3ccc(Cl)cn3)cc(F)c2F)[C@H]2C[C@H]2O1` [Example 142, N-(3-(((1R,S),(5S,R),(6R,S))-3-amino-5-(fluoromethyl)-2-oxa-4-azabicyclo[4.1.0]hept-3-en-5-yl)-4,5-difluorophenyl)-5-chloropicolinamide] showed an IC50 of 0.0263 µM.
Regarding `Cc1cc(C(F)F)cnc1C(=O)Nc1ccc(F)c([C@@]2(CF)N=C(N)O[C@@H]3C[C@@H]32)c1` [Example 201, N-(3-((1R,5S,6R)-3-amino-5-(fluoromethyl)-2-oxa-4-azabicyclo[4.1.0]hept-3-en-5-yl)-4-fluorophenyl)-5-(difluoromethyl)-3-methylpicolinamide], the IC50 on BACE came out at 0.0179 µM; in assay [1] (setting [2]), 0.0638 µM.
As for `Cc1cc(OC(F)F)cnc1C(=O)Nc1ccc(Cl)c(C2(C(F)F)N=C(N)O[C@@H]3C[C@@H]32)c1` (stereo partly drawn) [Example 209], the IC50 against BACE is 0.0765 µM; in assay [1] (setting [2]), 0.0908 µM.
For the compound `COc1cc(Cl)cnc1C(=O)Nc1ccc(Cl)c([C@@]2(CF)N=C(N)O[C@@H]3C[C@@H]32)c1` [Example 297, N-(3-((1R,5S,6R)-3-amino-5-(fluoromethyl)-2-oxa-4-azabicyclo[4.1.0]hept-3-en-5-yl)-4-chlorophenyl)-5-chloro-3-methoxypicolinamide], the half-maximal inhibitory concentration (IC50) against BACE came out at 0.0074 µM; in assay [1] (setting [2]), 0.183 µM.
As for `COc1cnc(C(=O)Nc2ccc(F)c([C@@]3(C)N=C(N)O[C@@H]4C[C@@H]43)n2)cn1` [Example 322, N-(6-((1R,5S,6R)-3-amino-5-methyl-2-oxa-4-azabicyclo[4.1.0]hept-3-en-5-yl)-5-fluoropyridin-2-yl)-5-methoxypyrazine-2-carboxamide], the figures for the concentration for half-maximal inhibition (IC50) (at BACE; in assay [1] (setting [2])) were 0.184 µM and 1.99 µM, respectively.
For `COc1cnc2c(Nc3ccc(F)c([C@]4(C)N=C(N)O[C@@H]5C[C@@H]54)c3)nccc2c1` [Example 338, (1R,5R,6R)-5-(2-fluoro-5-((3-methoxy-1,7-naphthyridin-8-yl)amino)phenyl)-5-methyl-2-oxa-4-azabicyclo[4.1.0]hept-3-en-3-amine], the results for the IC50 (in assay [1] (setting [2]); at Cathepsin D (Cat D) (read-out: CatD IC50)) were more than 40 µM and 56.6 µM, respectively.
For `COc1cnc2c(Nc3ccc(F)c([C@]4(C)N=C(N)O[C@H]5C[C@H]54)c3)nccc2c1` [Example 339], in that order: 8.11 µM and more than 400 µM.
For `N#Cc1cnc2c(Nc3ccc(Cl)c([C@]4(C(F)F)N=C(N)O[C@H]5C[C@H]54)c3)ncc(F)c2c1` [Example 349, 8-((3-((1(R,S),5(S,R),6(R,S))-3-amino-5-(difluoromethyl)-2-oxa-4-azabicyclo[4.1.0]hept-3-en-5-yl)-4-chlorophenyl)amino)-5-fluoro-1,7-naphthyridine-3-carbonitrile], in that order: 0.0829 µM and 88.4 µM.
As to `N#Cc1cnc2c(Nc3ccc(Cl)c([C@]4(C(F)F)N=C(N)O[C@H]5C[C@H]54)c3)ncc(F)c2c1` [Example 351, 8-((3-((1S,5R,6S)-3-amino-5-(difluoromethyl)-2-oxa-4-azabicyclo[4.1.0]hept-3-en-5-yl)-4-chlorophenyl)amino)-5-fluoro-1,7-naphthyridine-3-carbonitrile], the results for the IC50 (in assay [1] (setting [2]); at Cathepsin D (Cat D) (read-out: CatD IC50)) were 2.81 µM and more than 14.8 µM, respectively.
For `NC1=N[C@@](c2cc(Nc3coc4cc(Cl)cnc34)ccc2F)(C(F)F)[C@H]2C[C@H]2O1` [Example 385, N-(3-((1R,5S,6R)-3-amino-5-(difluoromethyl)-2-oxa-4-azabicyclo[4.1.0]hept-3-en-5-yl)-4-fluorophenyl)-6-chlorofuro[3,2-b]pyridin-3-amine], the IC50 in assay [1] amounted to 0.253 µM; against Cathepsin D (Cat D), 153 µM.
For the compound `N#Cc1cnc2c(c1)CC[C@H]2Nc1ccc(F)c([C@@]2(C(F)F)N=C(N)O[C@@H]3C[C@@H]32)c1` [Example 401, (R)-7-((3-((1R,5S,6R)-3-amino-5-(difluoromethyl)-2-oxa-4-azabicyclo[4.1.0]hept-3-en-5-yl)-4-fluorophenyl)amino)-6,7-dihydro-5H-cyclopenta[b]pyridine-3-carbonitrile], the results for the IC50 (at BACE; in assay [1] (setting [2])) were 0.0575 µM and 0.108 µM, respectively.
For `NC1=N[C@](c2cc(-c3nc4ccc(Cl)cc4o3)ccc2F)(C(F)F)[C@@H]2C[C@@H]2O1` [Example 425, (1S,5R,6S)-5-(5-(6-chlorobenzo[d]oxazol-2-yl)-2-fluorophenyl)-5-(difluoromethyl)-2-oxa-4-azabicyclo[4.1.0]hept-3-en-3-amine], the IC50 in assay [1] (setting [2]) amounted to 0.613 µM; on Cathepsin D (Cat D) (read-out: CatD IC50), 240 µM.
The matching figures for `NC1=N[C@@](c2cc(-c3nc4ccc(Cl)cc4o3)ccc2F)(C(F)F)[C@H]2C[C@H]2O1` [Example 426, (1R,5S,6R)-5-(5-(6-chlorobenzo[d]oxazol-2-yl)-2-fluorophenyl)-5-(difluoromethyl)-2-oxa-4-azabicyclo[4.1.0]hept-3-en-3-amine]: 1.24 µM and 196 µM.
For the compound `CC#Cc1cncc(-c2ccc(F)c([C@@]3(CF)N=C(N)O[C@@H]4C[C@@H]43)c2)c1` [Example 431, (1(S,R),5(R,S),6(S,R))-5-(2-fluoro-5-(5-(prop-1-yn-1-yl)pyridin-3-yl)phenyl)-5-(fluoromethyl)-2-oxa-4-azabicyclo[4.1.0]hept-3-en-3-amine], the IC50 is 4.69 µM in assay [1] (setting [2]) and 91.6 µM at Cathepsin D (Cat D) (read-out: CatD IC50).
The matching figures for `CC#Cc1cncc(-c2cc([C@]3(CF)N=C(N)O[C@H]4C[C@H]43)c(F)cc2CO)c1` [Example 432, (4-(((1S,R),(5R,S),(6S,R))-3-amino-5-(fluoromethyl)-2-oxa-4-azabicyclo[4.1.0]hept-3-en-5-yl)-5-fluoro-2-(5-(prop-1-yn-1-yl)pyridin-3-yl)phenyl)methanol]: 33.1 µM and 178 µM.
For `NC1=N[C@@](c2cc(-n3cc(C#CC4CC4)cn3)ccc2F)(C(F)F)[C@H]2C[C@H]2O1` [Example 435], in that order: 8.62 µM and 316 µM.
Regarding `CNc1cnc(C(=O)Nc2ccc(F)c([C@@]3(C(F)F)N=C(N)O[C@@H]4C[C@@H]43)c2)nc1` [Example 439, N-(3-((1R,5S,6R)-3-amino-5-(difluoromethyl)-2-oxa-4-azabicyclo[4.1.0]hept-3-en-5-yl)-4-fluorophenyl)-5-(methylamino)pyrimidine-2-carboxamide dihydrochloride], the IC50 came to 0.473 µM in assay [1] (setting [2]) and 490 µM on Cathepsin D (Cat D) (read-out: CatD IC50).
Turning to “(R)-8-((3-((1R,5S,6R)-3-amino-5-(difluoromethyl)-2-oxa-4-azabicyclo[4.1.0]hept-3-en-5-yl)-4-fluorophenyl)amino)-5,6,7,8-tetrahydroquinoline-3-carbonitrile and (S)-8-((3-((1R,5S,6R)-3-amino-5-(difluoromethyl)-2-oxa-4-azabicyclo[4.1.0]hept-3-en-5-yl)-4-fluorophenyl)amino)-5,6,7,8-tetrahydroquinoline-3-carbonitrile [Example 403]”, the results for the IC50 (in assay [1] (setting [2]); at Cathepsin D (Cat D) (read-out: CatD IC50)) were 2.85 µM and 469 µM, respectively.
Regarding “N-(3-((1R,5S,6R)-3- amino-5- (difluoromethyl)-2-oxa- 4-azabicyclo[4.1.0]hept- 3-en-5-yl)-4-fluoro-5- methylphenyl)-4-chloro- 2-(fluoromethyl) benzamide [Example 444]”, the IC50 came out at 0.0105 µM in assay [1] (setting [2]) and 171 µM at Cathepsin D (Cat D) (read-out: CatD IC50).
